A word on the IC50: it is the concentration that inhibits the measured activity by half. As usually defined, the half-life is the time needed for the level to fall by half in the phase considered.

The record followed here is ChEMBL document CHEMBL1153638, “Prolonged stability by cyclization: Macrocyclic phosphino dipeptide isostere inhibitors of beta-secretase (BACE1)” (Bioorg Med Chem Lett, 2009).

Numbered stars: 1 amine (or outer) side, 2 acyl side, 3 side chain; on linkers, the order of the positions; unused ones are H or OH. Square brackets hold non-standard residues; d marks the D form. Peptide text beside a SMILES is read from it. X1 = CC(C)C[C@H](N[*:1])P(=O)(O)C[C@@H](C)C(=O)[*:2]

Data set [1] has as its target T1, Beta-secretase 1 (Homo sapiens, UniProt P56817). The experiment in a line: Inhibition of ectodomain of BACE1 secreted from […] cells by fluorimetry. It is filed as cell-based.
Data set [2] in a line: Stability in human serum assessed as half life. It is filed as ADME, cell-free.
A short description of data set [3]: Stability in human serum after 160 mins. The note with it: read-out: Stability. It is filed as ADME, cell-free.
Data set [4] deals with T1, Beta-secretase 1. Nature of the data set: Inhibition of full-domain of BACE1 expressed in […] cells. It is filed as cell-based.
Data set [5] is described as follows: Stability in human serum after 120 mins. To be noted: read-out: Stability. It is filed as ADME, cell-free.

T1 sequence (P56817 whole entry, the tested form may be a part): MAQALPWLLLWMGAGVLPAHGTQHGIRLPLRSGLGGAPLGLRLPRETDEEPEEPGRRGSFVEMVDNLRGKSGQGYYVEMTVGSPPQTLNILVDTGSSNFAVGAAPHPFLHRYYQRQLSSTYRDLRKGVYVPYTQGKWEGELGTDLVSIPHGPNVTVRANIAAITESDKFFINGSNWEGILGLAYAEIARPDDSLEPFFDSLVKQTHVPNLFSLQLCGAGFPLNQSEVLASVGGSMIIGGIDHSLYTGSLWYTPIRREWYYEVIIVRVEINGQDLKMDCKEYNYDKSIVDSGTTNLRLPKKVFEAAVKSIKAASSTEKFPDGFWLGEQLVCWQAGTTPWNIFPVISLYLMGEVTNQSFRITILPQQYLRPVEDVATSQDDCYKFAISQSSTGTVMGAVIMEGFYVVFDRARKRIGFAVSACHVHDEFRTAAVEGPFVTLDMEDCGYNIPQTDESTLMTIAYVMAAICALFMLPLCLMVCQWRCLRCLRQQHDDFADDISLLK

Turning to `CC(CP(=O)(O)C1CCCCCC[C@H](NC(=O)[C@@H](N)CCC(=O)O)C(=O)N[C@@H](CC(=O)O)C(=O)N1)C(=O)N[C@H](C(=O)N[C@@H](CCC(=O)O)C(=O)N[C@@H](Cc1ccccc1)C(=O)O)C(C)C` (mixture of isomers; form 1), the concentration for half-maximal inhibition (IC50) on Beta-secretase 1 [1] worked out at 47 nM. In data set [2], the half-life came out at 43.9 min. For the same molecule, in data set [3], the remaining at 160 min was 20%.

Turning to `CC(C)C[C@H](NC(=O)[C@@H](N)CCC(=O)O)C(=O)N[C@@H](CC(=O)O)C(=O)N[C@@H](CC(C)C)P(=O)(O)C[C@@H](C)C(=O)N[C@H](C(=O)N[C@@H](CCC(=O)O)C(=O)N[C@@H](Cc1ccccc1)C(=O)O)C(C)C` (H-ELD[X1]VEF-OH), the half-life in data set [2] amounted to 14.8 min. This molecule also yielded an IC50 at Beta-secretase 1 [4] of 12 nM. The remaining at 2 h in data set [5] worked out at 20%.

At Beta-secretase 1 [1], `CC(CP(=O)(O)C1CCCCCC[C@H](NC(=O)[C@@H](N)CCC(=O)O)C(=O)N[C@@H](CC(=O)O)C(=O)N1)C(=O)N[C@H](C(=O)N[C@@H](CCC(=O)O)C(=O)N[C@@H](Cc1ccccc1)C(=O)O)C(C)C` (mixture of isomers; form 2) came in with a half-maximal inhibitory concentration (IC50) of 320 nM.

Turning to `CC(CP(=O)(O)C1CCCCCC[C@H](NC(=O)[C@@H](N)CCC(=O)O)C(=O)N[C@@H](CC(=O)O)C(=O)N1)C(=O)N[C@H](C(=O)N[C@@H](CCC(=O)O)C(=O)N[C@@H](Cc1ccccc1)C(=O)O)C(C)C` (mixture of isomers; form 3), the midpoint of inhibition against Beta-secretase 1 [1], the IC50, lay at 522 nM.

On to `CC(CP(=O)(O)C1CCCCCC[C@H](NC(=O)[C@@H](N)CCC(=O)O)C(=O)N[C@@H](CC(=O)O)C(=O)N1)C(=O)N[C@H](C(=O)N[C@@H](CCC(=O)O)C(=O)N[C@@H](Cc1ccccc1)C(=O)O)C(C)C` (mixture of isomers; form 4), for which the half-maximal inhibitory concentration (IC50) against Beta-secretase 1 [1] is 808 nM.
